Common to all, as to assay type: functional
One test concerns Lu1. As to the kind of experiment: Cytotoxicity against human Lu1 cells. The note with it: read-out: ED50 (the source's name).
The subject of test [1] is Trypanosoma cruzi. As to the kind of experiment: Antitrypanosomal activity against Trypanosoma cruzi trypomastigotes assessed as parasite lysis 500 ug/mL after 24 hrs.
The next test concerns Col2. As to the kind of experiment: Cytotoxicity against human Col2 cells. The note with it: read-out: ED50 (the source's name).
A further test deals with LNCaP. As to the kind of experiment: Cytotoxicity against human LNCAP cells. The note with it: read-out: ED50 (the source's name).
The test system of another test is KB. The experiment in a line: Cytotoxicity against human KB cells. The note with it: read-out: ED50 (the source's name).
The subject of test [2] is Trypanosoma cruzi. The experiment in a line: Antitrypanosomal activity against Trypanosoma cruzi trypomastigotes assessed as parasite lysis 125 ug/mL after 24 hrs.
Test [3] deals with Trypanosoma cruzi. As to the kind of experiment: Antitrypanosomal activity against Trypanosoma cruzi trypomastigotes assessed as parasite lysis 7.5 ug/mL after 24 hrs.

Each structure is given as a SMILES string. ≈ marks a conversion by molar mass, not a printed value.

`CC(C)=CCc1c(O)c(C(=O)CC(C)CO)c2oc(=O)cc(-c3ccccc3)c2c1O` (stereo not given): the EC50 stood at 19.8 µg/mL (≈ 46.9 µM) in the test with Lu1, 17.4 µg/mL (≈ 41.2 µM) with Col2, 15.9 µg/mL (≈ 37.6 µM) in the test with LNCaP and 17.7 µg/mL (≈ 41.9 µM) in the test with KB. The Activity in the test with Trypanosoma cruzi [1] stood at 98%.
As for `CCC(C)c1cc(=O)oc2c(C(=O)CC(C)CO)c(O)c(CC=C(C)C)c(O)c12` (stereo not given), the EC50 in the test with Lu1 stood at 19.4 µg/mL (≈ 48.2 µM); with Col2, 13.1 µg/mL (≈ 32.5 µM); with LNCaP, 14 µg/mL (≈ 34.8 µM); with KB, 15.8 µg/mL (≈ 39.3 µM). Moreover, the Activity in the test with Trypanosoma cruzi [1] is recorded as 100%; with Trypanosoma cruzi [2], 80%.
Consider `CCC(C)c1cc(=O)oc2c(C(=O)CC(C)CO)c(O)c3c(c12)OC(C(C)(C)O)C3` (stereo not given), for which the EC50 in the test on Lu1, in the test on Col2, in the test on LNCaP and with KB was over 20 µg/mL throughout.
With `Cc1c2ccncc2c(C)c2c1[nH]c1ccccc12` [ELLIPTECINE], the EC50 came out at 0.02 µg/mL (≈ 0.0812 µM) with Lu1, 0.3 µg/mL (≈ 1.22 µM) with Col2, 0.8 µg/mL (≈ 3.25 µM) in the test on LNCaP and 0.04 µg/mL (≈ 0.162 µM) in the test on KB.
As for `CN(C)c1ccc(C(=C2C=CC(=[N+](C)C)C=C2)c2ccc(N(C)C)cc2)cc1.[Cl-]` [GENTIAN VIOLET], the Activity in the test with Trypanosoma cruzi [3] amounted to 50%.

The values above are taken from ChEMBL document CHEMBL1159386, “New bioactive coumarins from Kielmeyera albopunctata” (2003).
